We go through one compound from patent US8202902B2, “Bivalent SMAC mimetics and the uses thereof” (The Regents of the University of Michigan, priority 2006, dated 2012).

For series [1], the target named is cIAP-1 protein containing both BIR2 and BIR3 domains (Homo sapiens, UniProt Q13490). In words: Fluorescence-polarization based binding assay, cIAP-1 BIR2-BIR3.
The target in the next series is cellular XIAP (Homo sapiens, UniProt P98170). The settings on record: cited from earlier work.
Series [2] concerns MDA-MB-231 human breast cancer cell line. In words: Cell growth inhibition, WST-8 assay, MDA-MB-231. The series is classed as cell-based. The procedure:
The rate of cell growth inhibition after treatment with different concentrations of the compound was determined using a WST-8 kit (2-(2-methoxy-4-nitrophenyl)-3-(4-nitrophenyl)-5-(2, 4 disulfophenyl)-2H-tetrazolium monosodium salt; Dojindo Molecular Technologies, Inc., Gaithersburg, Md.). WST-8 was added at a final concentration of 10% to each well, and then the plates were incubated at 37° C. for 2-3 hrs. The absorbance of the samples was measured at 450 nm using a ULTRA Tecan Reader (Molecular Device).
For orientation: Formazan colour is commonly taken as a measure of viable cells.

For series [3], the system named is MDA-MB-231 breast cancer cell line. In words: Apoptosis assay (Annexin V/P.I.), MDA-MB-231. The series is classed as cell-based, human. Conditions: 1 nM for 12 h. The procedure: Analysis of apoptosis was performed using an apoptosis detection kit (BioVision Research Products, Mountain View, Calif.) according to the manufacturer's protocol. Briefly, cells were treated with Smac mimetics for 12 hours, harvested and washed with ice-cold PBS. Cells were stained with Annexin V-FITC and Propidium iodide (P.I.) for 15 minutes at room temperature in the dark and immediately analyzed by FACS calibur flow cytometer (Becton Dickinson, Erembodegem, Belgium). Cells that were stained Annexin V (+) and P.I. (−) were considered early-stage apoptotic cells. Cells that were stained annexin V (+) and P.I. (+) were considered late-stage apoptotic cells and cells that were stained annexin V (−) and P.I. (+) were considered necrotic cells (FIG. 6).
Treatment with SM-164 at 1 nM for 12 h induced 32%, 33%, and 37% of the MDA-MB-231, SK-OV-3 and MALME-3M cells to undergo apoptosis, respectively (FIGS. 12-14).

The target of series [4] is T1, human XIAP protein (residues 120-356) (Homo sapiens, UniProt P98170).
T1 construct: human XIAP protein (residues 120-356) (10 nM)
The experiment in a line: Fluorescence-polarization-based binding assay to XIAP protein (Smac2-F tracer). The procedure:
The polarization values were measured after 2 hours incubation, using the Ultra plate reader. […] Curve fitting is performed using GraphPad Prism® software.

In series [5] the test system is HCT116 XIAP^+/+ and XIAP^−/− isogenic cell lines. The experiment in a line: HCT116 XIAP+/+ and XIAP-/- isogenic cell lines, Smac mimetics with TNFα. The class given is cell-based. The source says: To complement the siRNA experiments and to more precisely define the role of XIAP in TNFα-dependent apoptosis induction by Smac mimetics, HCT116 XIAP^+/+ and XIAP^−/− isogenic cell lines were used in further studies (Cummins et al., Cancer Res. 64:3006 (2004)). Since both these cell lines were resistant to SM-122 and SM-164 as a single agent (FIG. 41), the role of XIAP using Smac mimetics in combination with TNFα was investigated.
The combination of SM-164 at these concentrations with TNFα was effective in induction of caspase-3 activation, PARP cleavage and in inhibition of cell growth in the XIAP^+/+ cell line (FIG. 42). Although knockout of XIAP sensitized the HCT116 cells to SM-164 in combination with TNFα, the effect was much less than that observed with the combination of SM-122 with TNFα (FIG. 42).

For series [6], the system named is MDA-MB-231 xenograft tumor tissues. The experiment in a line: cIAP-1 degradation and apoptosis in MDA-MB-231 xenograft tumor and normal tissues. The class given is in vivo, mice. The procedure: To further investigate its therapeutic potential and in vivo mechanism, SM-164 was evaluated in the MDA-MB-231 xenograft model in mice. […] A single dose of SM-164 at 5 mg/kg decreased the level of cIAP-1 protein within 1 h and the effect lasted for at least 24 h. […] Apoptosis was examined by TUNEL staining using the In situ Cell Death Detection Kit (Roche Applied Science). To determine apoptosis in xenograft tumor and normal mouse tissues, severe combined immunodeficient (SCID) mice bearing established tumor were treated with Smac mimetics. Tissues were harvested and TUNEL staining was performed on formaldehyde-fixed, paraffin-embedded tissues. Paraffin-embedded tissue sections, mounted on slides, were deparaffinized and rehydrated by washing in a descending series of alcohol solutions (100%, 95%, 70% and 50%) and PBS. Antigen retrieval was performed by the microwave oven method using a commercially available antigen retrieval buffer (Covance Research Products, Inc.). Tissue sections were blocked with 3% BSA and 20% normal bovine serum in PBS for 30 min at room temperature (RT) to block unspecific binding sites. Tissue sections were incubated in 100 μl of TUNEL mixture [TUNEL mixture=10 μl of Enzyme solution (Vial 1)+90 μl of Label solution (Vial 2)] for 60 min at RT. Tissue section incubated in 90 μl of Label solution (Vial 2), instead of TUNEL mixture was used as negative control. Tissue section preincubated in DNase I recombination in 3000 U/ml of PBS, 1 mg/ml BSA for 10 min RT, followed by incubation with TUNEL mixture was used as positive control. Tissues slides were rinsed with PBS 5 min ×3, and stained with Propidium iodide and mounted and observed under a fluorescent microscope. […] The strong apoptosis induction by SM-164 was still evident at the 24 h time point. […] In contrast to the strong apoptosis induction and damage in xenograft tumor tissues, SM-164 has no effect on all the normal mouse tissues examined, including highly proliferative tissues such as the small intestine, stomach, liver and spleen (FIGS. 47-49).
Using the MDA-MB-231 xenograft model, SM-122 was also examined for its ability to induce cIAP-1 degradation and apoptosis in tumor tissues in vivo.

Series [7] relates to MDA-MB-231 and SK-OV-3 cancer cell lines. In words: Role of caspase-8, -3 and -9 (siRNA, caspase inhibitors) in activity of Smac mimetics. The class given is cell-based. Conditions: siRNA. An excerpt: To examine the role of caspase-8, -3 and -9 in apoptosis induction by Smac mimetics, siRNA was employed against these caspases in MDA-MB-231 and SK-OV-3 cancer cell lines.

Where two headings read alike, the source gives them in different places. Some results are limits rather than exact numbers.

T1 sequence (P98170 120-356): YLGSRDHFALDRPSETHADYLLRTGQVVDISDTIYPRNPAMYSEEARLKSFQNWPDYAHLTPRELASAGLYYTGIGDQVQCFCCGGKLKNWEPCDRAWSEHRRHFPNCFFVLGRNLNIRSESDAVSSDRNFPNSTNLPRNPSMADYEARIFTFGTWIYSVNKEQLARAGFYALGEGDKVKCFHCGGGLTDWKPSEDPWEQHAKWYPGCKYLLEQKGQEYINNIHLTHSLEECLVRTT
Chain of cIAP-1 protein containing both BIR2 and BIR3 domains (Q13490 174-352 limits assumed): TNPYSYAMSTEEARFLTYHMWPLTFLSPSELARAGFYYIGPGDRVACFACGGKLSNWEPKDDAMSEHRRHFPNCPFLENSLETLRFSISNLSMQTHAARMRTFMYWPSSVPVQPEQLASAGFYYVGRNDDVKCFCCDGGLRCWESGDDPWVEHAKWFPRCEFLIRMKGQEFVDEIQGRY
Chain of cellular XIAP (P98170 whole entry): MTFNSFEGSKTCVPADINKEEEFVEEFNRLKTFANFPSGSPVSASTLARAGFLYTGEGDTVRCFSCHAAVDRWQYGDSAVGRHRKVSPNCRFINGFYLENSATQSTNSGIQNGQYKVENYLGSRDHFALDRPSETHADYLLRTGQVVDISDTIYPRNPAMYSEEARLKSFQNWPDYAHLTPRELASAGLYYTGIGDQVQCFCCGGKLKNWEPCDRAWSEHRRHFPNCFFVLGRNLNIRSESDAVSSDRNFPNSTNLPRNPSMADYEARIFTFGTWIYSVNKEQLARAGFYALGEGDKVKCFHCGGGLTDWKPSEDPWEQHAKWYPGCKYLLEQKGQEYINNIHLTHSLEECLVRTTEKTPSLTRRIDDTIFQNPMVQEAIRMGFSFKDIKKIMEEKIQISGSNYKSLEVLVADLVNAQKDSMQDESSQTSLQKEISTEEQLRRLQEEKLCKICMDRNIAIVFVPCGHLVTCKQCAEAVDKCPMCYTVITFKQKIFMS

What is called Ki is a dissociation constant, usually derived from enzyme kinetics or from competition with a known ligand. High values mean weaker binding, low ones tighter binding. By IC50 is commonly meant the concentration that inhibits the measured activity by half. As to `CN[C@@H](C)C(=O)N[C@H]1CCCC[C@H]2CC[C@@H](C(=O)N[C@@H](c3ccccc3)c3cn(CCCCc4ccc(CCCCn5cc([C@@H](NC(=O)[C@@H]6CC[C@@H]7CCCC[C@H](NC(=O)[C@H](C)NC)C(=O)N76)c6ccccc6)nn5)cc4)nn3)N2C1=O` [SH-164], in series [1], the Ki came out at 0.31 nM and the “more potent than SM-122 to cIAP-1” value was 9 times. Further, the “more potent than SM-122 in competing off a biotinylated Smac mimetic to cellular XIAP” value on cellular XIAP is recorded as over 100 times. The IC50 in series [2] (MDA-MB-231, 96 h, 4 days, WST-8, read-out: IC50 cell growth inhibition) worked out at 1.4 nM. For the same compound, in series [2] (MDA-MB-231, read-out: IC50 values (nM) In WST-assay (MDA-MB-231)), the half-inhibitory concentration (IC50) was under 10 nM. The same compound returned a cells undergoing apoptosis in series [3] of 32%. Also, in series [4], the “binding affinity better than the monovalent Smac mimetic SH-122” value is listed as “more than 500 fold” and the “more potent than the natural Smac peptide AVPI” value is over 5000 times. The “caspase-3 activation, PARP cleavage and cell growth inhibition” value in series [5] (10-100 nM with TNFα, XIAP+/+ cell line) is “effective”. The cIAP-1 degradation result in series [5] (10-100 nM, both cell lines) is recorded as “effectively induced cIAP-1 degradation”. In addition, the “sensitivity as a single agent” value in series [5] (both cell lines) is given as “resistant”. In addition, the “activation of caspase-8, -9, and -3 and cleavage of PARP” value in series [6] (3 h time point, persisted for 24 h) was “Robust activation”. Further, the “TUNEL positive tumor cells” value in series [6] (6 h time point) was “more than 50%”. In series [6] (mouse, in vivo), the “H&E staining of tumor tissues” value is reported as “profound damage to tumor tissues”. Further, in series [6] (single dose 5 mg/kg), the “duration of cIAP-1 decrease” value was “at least 24 h” and the “time to decrease of cIAP-1 protein level in tumor” value is listed as at most 1 h. The “effect on normal mouse tissues” value in series [6] (small intestine, stomach, liver, spleen etc.) is “no effect”. In series [7], the “effect of knockdown of caspase-3 and -8 on activity” value is on record as “markedly attenuated”; the “effect of knockdown of caspase-9 on activity” value was “minimal effect”.
